Assay results: ChEMBL document CHEMBL2429780, “Synthesis, antimicrobial and cytotoxic activity of 2-azetidinone derivatives of pyridyl benzimidazoles” (Med Chem Res, 2013)
≈ marks a conversion by molar mass, not a printed value. Calls of active or inactive are those of the source. The calls are words filed in the database; no cut-off is given here.

What was measured:
Staphylococcus aureus [1] = test: Antibacterial activity against Staphylococcus aureus MTCC 96 assessed as growth inhibition at 12.5 to 1000 ug/mL after 24 hrs by broth dilution assay; assay type: functional, organism-based
Aspergillus clavatus [2] = test: Antifungal activity against Aspergillus clavatus assessed as growth inhibition at 12.5 to 1000 ug/mL after 48 hrs by broth dilution assay; assay type: functional, organism-based
Aspergillus niger [3] = test: Antifungal activity against Aspergillus niger assessed as growth inhibition at 12.5 to 1000 ug/mL after 48 hrs by broth dilution assay; assay type: functional, organism-based
Candida albicans [4] = test: Antifungal activity against Candida albicans assessed as growth inhibition at 12.5 to 1000 ug/mL after 48 hrs by broth dilution assay; assay type: functional, organism-based
Streptococcus pyogenes [5] = test: Antibacterial activity against Streptococcus pyogenes MTCC 442 assessed as growth inhibition at 12.5 to 1000 ug/mL after 24 hrs by broth dilution assay; assay type: functional, organism-based
Pseudomonas aeruginosa [6] = test: Antibacterial activity against Pseudomonas aeruginosa MTCC 1688 assessed as growth inhibition at 12.5 to 1000 ug/mL after 24 hrs by broth dilution assay; assay type: functional, organism-based
Escherichia coli [7] = test: Antibacterial activity against Escherichia coli MTCC 443 assessed as growth inhibition at 12.5 to 1000 ug/mL after 24 hrs by broth dilution assay; assay type: functional, organism-based
Staphylococcus aureus [8] = test: Antibacterial activity against Staphylococcus aureus MTCC 96 assessed as growth inhibition after 24 hrs by broth dilution assay; assay type: functional; conditions: MTCC 96, 24 h
HeLa = test: Cytotoxicity against human HeLa cells assessed as growth inhibition after 24 to 72 hrs by MTT assay; assay type: cell-based
Aspergillus niger [9] = test: Antifungal activity against Aspergillus niger assessed as growth inhibition after 48 hrs by broth dilution assay; assay type: functional
Pseudomonas aeruginosa [10] = test: Antibacterial activity against Pseudomonas aeruginosa MTCC 1688 assessed as growth inhibition after 24 hrs by broth dilution assay; assay type: functional; conditions: MTCC 1688, 24 h
Aspergillus clavatus [11] = test: Antifungal activity against Aspergillus clavatus assessed as growth inhibition after 48 hrs by broth dilution assay; assay type: functional
Streptococcus pyogenes [12] = test: Antibacterial activity against Streptococcus pyogenes MTCC 442 assessed as growth inhibition after 24 hrs by broth dilution assay; assay type: functional; conditions: MTCC 442, 24 h
Candida albicans [13] = test: Antifungal activity against Candida albicans assessed as growth inhibition after 48 hrs by broth dilution assay; assay type: functional
Escherichia coli [14] = test: Antibacterial activity against Escherichia coli MTCC 443 assessed as growth inhibition after 24 hrs by broth dilution assay; assay type: functional; conditions: MTCC 443, 24 h

| Structure (SMILES) | growth inhibition (GI) (Staphylococcus aureus [1]) | growth inhibition (GI) (Aspergillus clavatus [2]) | growth inhibition (GI) (Aspergillus niger [3]) | growth inhibition (GI) (Candida albicans [4]) | growth inhibition (GI) (Streptococcus pyogenes [5]) | growth inhibition (GI) (Pseudomonas aeruginosa [6]) | growth inhibition (GI) (Escherichia coli [7]) | MIC (Staphylococcus aureus [8]) [µg/mL] | IC50 (HeLa) [µM] | MIC (Aspergillus niger [9]) [µg/mL] | MIC (Pseudomonas aeruginosa [10]) [µg/mL] | MIC (Aspergillus clavatus [11]) [µg/mL] | MIC (Streptococcus pyogenes [12]) [µg/mL] | MIC (Candida albicans [13]) [µg/mL] | MIC (Escherichia coli [14]) [µg/mL] |
| --- | --- | --- | --- | --- | --- | --- | --- | --- | --- | --- | --- | --- | --- | --- | --- |
| COc1cccc(-c2cc(-c3nc4ccccc4[nH]3)nc(N)c2C#N)c1 | inactive | inactive | inactive | inactive | inactive | inactive | inactive | – | – | – | – | – | – | – | – |
| Cc1cccc(-c2cc(-c3nc4ccccc4[nH]3)nc(N)c2C#N)c1 | inactive | inactive | inactive | inactive | inactive | inactive | inactive | – | – | – | – | – | – | – | – |
| N#Cc1c(-c2ccccc2)cc(-c2nc3ccccc3[nH]2)nc1N | inactive | inactive | inactive | inactive | inactive | inactive | inactive | – | – | – | – | – | – | – | – |
| N#Cc1c(-c2ccc(O)cc2)cc(-c2nc3ccccc3[nH]2)nc1N | inactive | inactive | inactive | inactive | inactive | inactive | inactive | – | – | – | – | – | – | – | – |
| N#Cc1c(-c2ccc(Cl)cc2O)cc(-c2nc3ccccc3[nH]2)nc1N | inactive | inactive | inactive | inactive | inactive | inactive | inactive | – | – | – | – | – | – | – | – |
| N#Cc1c(-c2cccc(O)c2)cc(-c2nc3ccccc3[nH]2)nc1N | inactive | inactive | inactive | inactive | inactive | inactive | inactive | – | – | – | – | – | – | – | – |
| N#Cc1c(-c2cccc(O)c2)cc(-c2nc3ccccc3[nH]2)nc1N1C(=O)C(Cl)C1c1ccccc1 (configuration not stated) | – | – | – | – | – | – | – | 500 (≈ 1020 µM) | 86.5 | 500 (≈ 1020 µM) | 500 (≈ 1020 µM) | 250 (≈ 508 µM) | 500 (≈ 1020 µM) | 250 (≈ 508 µM) | 500 (≈ 1020 µM) |
| COc1ccc(-c2cc(-c3nc4ccccc4[nH]3)nc(N3C(=O)C(Cl)C3c3ccccc3)c2C#N)cc1 (configuration not stated) | – | – | – | – | – | – | – | 500 (≈ 988 µM) | 58.2 | 500 (≈ 988 µM) | 250 (≈ 494 µM) | 500 (≈ 988 µM) | 250 (≈ 494 µM) | 1000 (≈ 1980 µM) | 100 (≈ 198 µM) |
| N#Cc1c(-c2ccccc2)cc(-c2nc3ccccc3[nH]2)nc1N1C(=O)C(Cl)C1c1ccccc1 (configuration not stated) | – | – | – | – | – | – | – | 250 (≈ 525 µM) | 81 | 250 (≈ 525 µM) | 500 (≈ 1050 µM) | 500 (≈ 1050 µM) | 500 (≈ 1050 µM) | 500 (≈ 1050 µM) | 250 (≈ 525 µM) |
| N#Cc1c(-c2cccc(Cl)c2)cc(-c2nc3ccccc3[nH]2)nc1/N=C/c1ccccc1 | – | inactive | inactive | inactive | – | – | – | – | – | – | 1000 (≈ 2300 µM) | – | 1000 (≈ 2300 µM) | – | – |
| N#Cc1c(-c2ccc(O)cc2)cc(-c2nc3ccccc3[nH]2)nc1N1C(=O)C(Cl)C1c1ccccc1 (configuration not stated) | – | – | – | – | – | – | – | 250 (≈ 508 µM) | 67.4 | 500 (≈ 1020 µM) | 250 (≈ 508 µM) | 250 (≈ 508 µM) | 250 (≈ 508 µM) | 500 (≈ 1020 µM) | 250 (≈ 508 µM) |
| Cc1ccccc1-c1cc(-c2nc3ccccc3[nH]2)nc(N2C(=O)C(Cl)C2c2ccccc2)c1C#N (configuration not stated) | – | – | – | – | – | – | – | 500 (≈ 1020 µM) | 66 | 1000 (≈ 2040 µM) | 1000 (≈ 2040 µM) | 500 (≈ 1020 µM) | 500 (≈ 1020 µM) | 500 (≈ 1020 µM) | 250 (≈ 510 µM) |
| N#Cc1c(-c2ccccc2Cl)cc(-c2nc3ccccc3[nH]2)nc1N1C(=O)C(Cl)C1c1ccccc1 (configuration not stated) | – | – | – | – | – | – | – | 100 (≈ 196 µM) | > 100 | 100 (≈ 196 µM) | 250 (≈ 490 µM) | 100 (≈ 196 µM) | 100 (≈ 196 µM) | 100 (≈ 196 µM) | 100 (≈ 196 µM) |
| N#Cc1c(-c2cccc([N+](=O)[O-])c2)cc(-c2nc3ccccc3[nH]2)nc1/N=C/c1ccccc1 | – | inactive | inactive | inactive | – | – | – | – | – | – | 1000 (≈ 2250 µM) | – | 1000 (≈ 2250 µM) | – | – |
| N#Cc1c(-c2cccc(Cl)c2)cc(-c2nc3ccccc3[nH]2)nc1N1C(=O)C(Cl)C1c1ccccc1 (configuration not stated) | – | – | – | – | – | – | – | 25 (≈ 49 µM) | > 100 | 25 (≈ 49 µM) | 25 (≈ 49 µM) | 50 (≈ 98 µM) | 50 (≈ 98 µM) | 50 (≈ 98 µM) | 50 (≈ 98 µM) |
| N#Cc1c(-c2ccc(Cl)cc2O)cc(-c2nc3ccccc3[nH]2)nc1N1C(=O)C(Cl)C1c1ccccc1 (configuration not stated) | – | – | – | – | – | – | – | 100 (≈ 190 µM) | 91.5 | 250 (≈ 475 µM) | 200 (≈ 380 µM) | 250 (≈ 475 µM) | 250 (≈ 475 µM) | 250 (≈ 475 µM) | 500 (≈ 950 µM) |
| N#Cc1c(-c2ccc(Cl)cc2)cc(-c2nc3ccccc3[nH]2)nc1N1C(=O)C(Cl)C1c1ccccc1 (configuration not stated) | – | – | – | – | – | – | – | 12.5 (≈ 24.5 µM) | > 100 | 100 (≈ 196 µM) | 12.5 (≈ 24.5 µM) | 100 (≈ 196 µM) | 25 (≈ 49 µM) | 100 (≈ 196 µM) | 12.5 (≈ 24.5 µM) |
| COc1cccc(-c2cc(-c3nc4ccccc4[nH]3)nc(N3C(=O)C(Cl)C3c3ccccc3)c2C#N)c1 (configuration not stated) | – | – | – | – | – | – | – | 500 (≈ 988 µM) | 64 | 500 (≈ 988 µM) | 500 (≈ 988 µM) | 250 (≈ 494 µM) | 500 (≈ 988 µM) | 500 (≈ 988 µM) | 250 (≈ 494 µM) |
